Measurements from PubChem BioAssay AID1224921 (Broad Institute, 2016).
Calls of active or inactive are those of the source. No rule for the calls is given here.

Test system: Clostridioides difficile clinical isolate growth, OD600, 24 h
Experiment: inhibitors of Clostridioides difficile proliferation – 4-point retest, confirmation (AID 1224921)

In order of falling AC50:
1. C[C@@H]1CCCCO[C@@H](CN(C)CC2CC2)[C@@H](C)CN([C@H](C)CO)C(=O)c2cc(NC(=O)Nc3ccc(C(F)(F)F)cc3)ccc2O1  35.5 µM
2. COc1ccccc1C#Cc1ccc([C@H]2[C@@H](CO)N(C(=O)C3CCCCC3)[C@H]2C#N)cc1  34.2 µM
3. C[C@H](CO)N1C[C@H](C)[C@H](CN(C)C(=O)Nc2ccc(F)cc2)Oc2c(NC(=O)Nc3ccc(C(F)(F)F)cc3)cccc2C1=O  33.7 µM
4. C[C@H]1CN([C@@H](C)CO)C(=O)c2cccc(NC(=O)Nc3ccc(C(F)(F)F)cc3)c2O[C@@H]1CN(C)C(=O)Nc1ccccc1  32.2 µM
5. C[C@@H]1CN([C@H](C)CO)C(=O)c2cc(C#CCc3ccccc3)cnc2O[C@H]1CN(C)CC1CCCC1  31 µM
6. O=C(C[C@@H]1CC[C@H]2[C@@H](COC[C@H](O)CN2S(=O)(=O)c2ccc(Cl)cc2)O1)NCc1ccc(Cl)c(Cl)c1  30.9 µM
7. COc1ccccc1C#Cc1ccc([C@H]2[C@@H](C#N)N(C(=O)C3CCCCC3)[C@H]2CO)cc1  30 µM
8. C[C@H]1CN([C@@H](C)CO)C(=O)c2cccc(NC(=O)Nc3ccccc3)c2O[C@H]1CN(C)C(=O)Nc1ccc(C(F)(F)F)cc1  28.2 µM
9. CC(C)NC(=O)N1[C@H](CO)[C@@H](c2ccc(-c3ccc(F)cc3)cc2)[C@@H]1C#N  22.6 µM
10. C[C@@H]1CCCCO[C@@H](CN(C)Cc2ccccc2)[C@H](C)CN([C@H](C)CO)C(=O)c2cc(NC(=O)Nc3ccc(C(F)(F)F)cc3)ccc2O1  21.9 µM
11. COc1cccc(C#Cc2ccc([C@H]3[C@@H](CO)N(C(=O)C4CCCCC4)[C@H]3C#N)cc2)c1  19 µM
12. O=C(C[C@@H]1CC[C@@H]2[C@H](COC[C@H](O)CN2C(=O)Nc2ccc(C(F)(F)F)cc2)O1)NC1Cc2ccccc2C1  19 µM
13. C[C@@H]1CN([C@H](C)CO)C(=O)Cc2cc(NC(=O)CCCN(C)C)ccc2O[C@H]1CN(C)Cc1ccc(-c2ccccc2)cc1  19 µM
14. Cc1ccc(S(=O)(=O)N[C@H]2CC[C@@H](CCNC(=O)Nc3ccc(Cl)cc3)O[C@H]2CO)cc1  18.2 µM
15. C[C@@H]1CN([C@H](C)CO)S(=O)(=O)c2ccc(C#CC3CCCCC3)cc2O[C@@H]1CN(C)C  16.9 µM
16. CO[C@@H](CN(C)S(=O)(=O)c1cn(C)cn1)[C@@H](C)CN(C(=O)Nc1ccc(C(F)(F)F)cc1)[C@H](C)CO  16.5 µM
17. O=C(NCC[C@H]1CC[C@H](NC(=O)C2CC2)[C@H](CO)O1)Nc1ccc(C(F)(F)F)cc1  16 µM
18. C[C@@H]1CCCCO[C@H](CN(C)CC2CC2)[C@H](C)CN([C@@H](C)CO)C(=O)c2cc(NC(=O)Nc3ccc(C(F)(F)F)cc3)ccc2O1  16 µM
19. O=C(NCC[C@H]1CC[C@H](NC(=O)C2CC2)[C@@H](CO)O1)Nc1ccc(C(F)(F)F)cc1  15.6 µM
20. O=C(C[C@@H]1CC[C@H]2[C@@H](COC[C@H](O)CN2S(=O)(=O)c2ccccc2)O1)NCC1CCCCC1  15.6 µM
21. O=C(C[C@H]1CC[C@@H]2[C@H](COC[C@@H](O)CN2S(=O)(=O)c2ccccc2)O1)NCC1CCCCC1  15.5 µM
22. O=C(C[C@H]1CC[C@@H]2[C@H](COC[C@@H](O)CN2C(=O)Nc2cc(Cl)cc(Cl)c2)O1)N1CCOCC1  15.3 µM
23. O=C(C[C@@H]1CC[C@@H]2[C@H](COC[C@@H](O)CN2S(=O)(=O)c2ccccc2)O1)NCC1CCCCC1  15.2 µM
24. CO[C@@H](CN(C)C(=O)C1CC1)[C@@H](C)CN(C(=O)Nc1ccc(C(F)(F)F)cc1)[C@H](C)CO  14.7 µM
25. C[C@H](CO)N1C[C@H](C)[C@@H](CN(C)CC2CCCCC2)OCCCC[C@H](C)Oc2ccc(NC(=O)Nc3ccc(C(F)(F)F)cc3)cc2C1=O  13.6 µM
26. C[C@@H]1CCCCO[C@H](CN(C)Cc2ccccc2)[C@@H](C)CN([C@@H](C)CO)C(=O)c2cc(NC(=O)Nc3ccc(C(F)(F)F)cc3)ccc2O1  12.5 µM
27. CNC(=O)C[C@@H]1CC[C@H]2[C@@H](COC[C@@H](O)CN2C(=O)Nc2ccc(Cl)c(Cl)c2)O1  11.9 µM
28. CCNC(=O)C[C@@H]1CC[C@@H]2[C@H](COC[C@H](O)CN2C(=O)Nc2ccc(C(F)(F)F)cc2)O1  11.8 µM
29. O=C(C[C@H]1CC[C@H]2[C@@H](COC[C@@H](O)CN2C(=O)Nc2cc(Cl)cc(Cl)c2)O1)NCC1CC1  10.9 µM
30. CCCN(C)C[C@H]1OCCCC[C@@H](C)Oc2ccc(NC(=O)Nc3ccc(C(F)(F)F)cc3)cc2C(=O)N([C@@H](C)CO)C[C@H]1C  10.5 µM
31. CCNC(=O)C[C@@H]1CC[C@H]2[C@@H](COC[C@@H](O)CN2C(=O)Nc2ccc(C(F)(F)F)cc2)O1  10.4 µM
32. CO[C@H](CN(C)Cc1cc(F)ccc1F)[C@H](C)CN(C(=O)Nc1ccc(C(F)(F)F)cc1)[C@H](C)CO  10.3 µM
33. CO[C@H]1CN(C)C(=O)c2cc(NC(=O)Nc3ccc(Cl)c(Cl)c3)ccc2OC[C@H](C)NC[C@H]1C  9.51 µM
34. C[C@@H]1CN([C@@H](C)CO)C(=O)Cc2cc(NS(C)(=O)=O)ccc2O[C@H]1CN(C)Cc1ccc(Cl)c(Cl)c1  8.49 µM
35. CO[C@@H]1CN(C)C(=O)c2cc(NC(=O)Nc3ccc(Cl)c(Cl)c3)ccc2OC[C@H](C)NC[C@@H]1C  8.13 µM
36. Cc1ccc(S(=O)(=O)Nc2ccc3c(c2)C(=O)N([C@@H](C)CO)C[C@H](C)[C@@H](CN(C)Cc2ccc4c(c2)OCO4)OCCCC[C@@H](C)O3)cc1  7.88 µM
37. CO[C@H](CN(C)S(=O)(=O)c1cn(C)cn1)[C@H](C)CN(C(=O)Nc1ccc(C(F)(F)F)cc1)[C@@H](C)CO  7.66 µM
38. CNC(=O)C[C@@H]1CC[C@H]2[C@@H](COC[C@H](O)CN2C(=O)Nc2ccc(Cl)c(Cl)c2)O1  7.63 µM
39. O=C(C[C@H]1CC[C@H]2[C@@H](COC[C@@H](O)CN2C(=O)Nc2ccc(C(F)(F)F)cc2)O1)NC1Cc2ccccc2C1  7.54 µM
40. CO[C@@H]1CN(C)C(=O)c2cc(NC(=O)Nc3ccc(Cl)c(Cl)c3)ccc2OC[C@H](C)NC[C@H]1C  6.72 µM
41. CO[C@H](CN(C)C(=O)C1CCOCC1)[C@H](C)CN(C(=O)Nc1ccc(C(F)(F)F)cc1)[C@H](C)CO  5.96 µM
42. C[C@@H]1CN([C@@H](C)CO)C(=O)c2cc(NC(=O)Nc3ccc(C(F)(F)F)cc3)ccc2O[C@@H](C)CCCCO[C@H]1CN(C)CC1CCCCC1  4.9 µM
43. O=C(C[C@H]1CC[C@H]2[C@@H](COC[C@@H](O)CN2C(=O)Nc2ccc(Cl)c(Cl)c2)O1)NCc1ccccc1  3.72 µM
44. O=C(C[C@H]1CC[C@@H]2[C@H](COC[C@@H](O)CN2C(=O)Nc2ccc(Cl)c(Cl)c2)O1)NCc1ccc(Cl)cc1  3.67 µM
45. CO[C@@H](CN(C)C(=O)C1CCOCC1)[C@@H](C)CN(C(=O)Nc1ccc(C(F)(F)F)cc1)[C@@H](C)CO  3.66 µM
46. C[C@@H]1CN([C@@H](C)CO)C(=O)c2cccc(NC(=O)Nc3ccc(C(F)(F)F)cc3)c2O[C@@H]1CN(C)Cc1ccccc1  3.65 µM
47. CCCNC(=O)C[C@@H]1CC[C@@H]2[C@H](COC[C@H](O)CN2C(=O)Nc2ccc(Cl)c(Cl)c2)O1  3.54 µM
48. O=C(C[C@@H]1CC[C@@H]2[C@H](COC[C@H](O)CN2C(=O)Nc2ccc(C(F)(F)F)cc2)O1)NCCc1ccncc1  3.46 µM
49. O=C(C[C@H]1CC[C@@H]2[C@H](COC[C@@H](O)CN2C(=O)Nc2ccc(Cl)c(Cl)c2)O1)NCc1ccc(Cl)c(Cl)c1  3.34 µM
50. O=C(NCC[C@@H]1CC[C@H](NC(=O)c2cccnc2)[C@H](CO)O1)Nc1ccc(C(F)(F)F)cc1  3.01 µM
51. CCCNC(=O)C[C@H]1CC[C@@H]2[C@H](COC[C@@H](O)CN2C(=O)Nc2ccc(Cl)c(Cl)c2)O1  2.91 µM
52. O=C(NCC[C@H]1CC[C@@H](NC(=O)c2cccnc2)[C@@H](CO)O1)Nc1ccc(C(F)(F)F)cc1  2.9 µM
53. CCNC(=O)C[C@H]1CC[C@H]2[C@@H](COC[C@@H](O)CN2C(=O)Nc2ccc(C(F)(F)F)cc2)O1  2.77 µM
54. CCC(=O)N[C@H]1CC[C@@H](CCNC(=O)Nc2ccc(C(F)(F)F)cc2)O[C@@H]1CO  2.73 µM
55. O=C(C[C@@H]1CC[C@@H]2[C@H](COC[C@@H](O)CN2C(=O)Nc2ccc(C(F)(F)F)cc2)O1)NC1Cc2ccccc2C1  2.27 µM
56. O=C(C[C@H]1CC[C@@H]2[C@H](COC[C@@H](O)CN2C(=O)Nc2ccc(Cl)c(Cl)c2)O1)NCc1ccc(F)cc1  2.15 µM
57. O=C(C[C@@H]1CC[C@@H]2[C@H](COC[C@@H](O)CN2C(=O)Nc2ccc(C(F)(F)F)cc2)O1)NCC1CCCCC1  2.03 µM
58. O=C(C[C@H]1CC[C@@H]2[C@H](COC[C@H](O)CN2C(=O)Nc2ccc(Cl)c(Cl)c2)O1)NCc1ccc(Cl)cc1  1.88 µM
59. COc1ccc(CN(C)C[C@H]2Oc3c(NC(=O)Nc4ccc(C(F)(F)F)cc4)cccc3C(=O)N([C@@H](C)CO)C[C@H]2C)cc1  1.65 µM
60. C[C@@H]1CN([C@@H](C)CO)S(=O)(=O)c2ccc(/C=C/c3ccccc3)cc2O[C@H]1CN(C)Cc1ccc(C(=O)O)cc1  1.35 µM
61. O=C(C[C@@H]1CC[C@H]2[C@@H](COC[C@H](O)CN2C(=O)Nc2ccc(Cl)c(Cl)c2)O1)NCc1ccc(F)cc1  1.3 µM
62. O=C(C[C@H]1CC[C@H]2[C@@H](COC[C@H](O)CN2C(=O)Nc2ccc(Cl)c(Cl)c2)O1)NCc1ccc(Cl)cc1  1.07 µM
63. COc1ccccc1CNC(=O)C[C@H]1CC[C@@H]2[C@H](COC[C@H](O)CN2C(=O)Nc2ccc(C(F)(F)F)cc2)O1  1.04 µM
64. C[C@@H]1CN([C@@H](C)CO)C(=O)c2cccc(NC(=O)Nc3ccc4c(c3)OCO4)c2O[C@@H]1CN(C)Cc1ccc(-c2ccccc2)cc1  0.665 µM

`CO[C@H]1CN(C)C(=O)c2ccc(NC(=O)Nc3ccccc3)cc2OC[C@@H](C)NC[C@@H]1C` was tested, and the AC50 was > 60 µM (inactive).
For `C[C@H](C(=O)N(C)C[C@@H]1OCc2ccccc2-c2ccccc2C(=O)N([C@H](C)CO)C[C@@H]1C)c1ccccc1`, the AC50 was > 60 µM (inactive).
For `C[C@@H]1CN([C@@H](C)CO)C(=O)c2c(c3ccccc3n2C)-c2ccccc2CO[C@@H]1CN(C)Cc1ccncc1`, the AC50 was > 60 µM (inactive).
For `O=C(C[C@H]1CC[C@H]2[C@@H](COC[C@@H](O)CN2C(=O)c2cnccn2)O1)NCc1ccc(Cl)cc1`, the AC50 was > 60 µM (inactive).
`COc1cccc(C#Cc2ccc([C@@H]3[C@@H](C#N)N(C(=O)C4CCC4)[C@H]3CO)cc2)c1` was tested, and the AC50 was > 60 µM (inactive).
With `O=C(N[C@H]1CC[C@H](CCNS(=O)(=O)c2ccc(Cl)cc2)O[C@H]1CO)c1ccccn1` the AC50 was > 60 µM (inactive).
In the case of `O=C(C[C@H]1CC[C@@H](NC(=O)CCN2CCCCC2)[C@H](CO)O1)Nc1nccs1`, the AC50 was > 60 µM (inactive).
In the case of `COc1ccccc1S(=O)(=O)N(C)C[C@H]1OCc2ccccc2-c2c(n(C)c3ccccc23)C(=O)N([C@H](C)CO)C[C@@H]1C`, the AC50 was > 60 µM (inactive).
